Source: US20230392111A1, “COMPOSITION FOR PROMOTING THE GROWTH OF LACTIC ACID BACTERIA COMPRISING GROWTH FACTORS” (priority 2020, published 2023)

Key:
Assay in all cases: Viable cell count after culture in supplemented BL broth
Format in all cases: cell-based
Conditions in all cases: Exp. Ex. 1 carbon source; 2 parts by weight in 100 parts BL broth; 20 hours; pH about 5.0 to 6.5
[1] = system: Bifidobacterium bifidum CBT-BF3 (KCTC 12199BP)
Experimental: (§1) To promote the growth of non-specific various types of lactic acid bacteria, an optimal mixture composition was determined by culturing each of the following strains using each component, ratio and composition and measuring the viable cell count of each of the strains: Lactobacillus casei CBT-LC5 (accession number: KCTC 12398BP), Lactobacillus plantarum CBT-LP3 (accession number: KCTC 10782BP), Lactobacillus rhamnosus CBT-LR5 (accession number: KCTC 12202BP), Bifidobacterium longum CBT-BG7 (accession number: KCTC 12200BP), Bifidobacterium lactis CBT-BL3 (accession number: KCTC 11904BP), Bifidobacterium bifidum CBT-BF3 (accession number: KCTC 12199BP), Streptococcus thermophilus CBT-ST3 (accession number: KCTC 11870BP), and Pediococcus pentosaceus CBT-SL4 (accession number: KCTC 10297BP). Starter cultures were prepared using BL broth.
(§2) 0.1 to 1 part by weight of each of the starter cultures was inoculated into 100 parts by weight of each prepared medium, and then cultured for 20 hours while the pH was maintained at about 5.0 to 6.5. […] Thus, glucose or fructooligosaccharide was selected as a carbon source for a subsequent experiment (Table 2). […]
(§3) 0.1 to 1 part by weight of each starter culture was inoculated into 100 parts by weight of each of the prepared media, and then cultured for 20 hours while the pH was maintained at about 5.0 to 6.5. […]

[2] = system: Bifidobacterium lactis CBT-BL3 (KCTC 11904BP)
Experimental: as §1, §2, §3

[3] = system: Bifidobacterium longum CBT-BG7 (KCTC 12200BP)
Experimental: as §1, §2, §3

[4] = system: Lactobacillus casei CBT-LC5 (KCTC 12398BP)
Experimental: as §1, §2, §3

[5] = system: Lactobacillus plantarum CBT-LP3 (KCTC 10782BP)
Experimental: as §1, §2, §3

[6] = system: Lactobacillus rhamnosus CBT-LR5 (KCTC 12202BP)
Experimental: as §1, §2, §3

[7] = system: Pediococcus pentosaceus CBT-SL4 (KCTC 10297BP)
Experimental: as §1, §2, §3

[8] = system: Streptococcus thermophilus CBT-ST3 (KCTC 11870BP)
Experimental: as §1, §2, §3

SMILES | viable cell count [1] | viable cell count [2] | viable cell count [3] | viable cell count [4] | viable cell count [5] | viable cell count [6] | viable cell count [7] | viable cell count [8]
O=C(CO)[C@@H](O)[C@H](O)[C@H](O)CO [Fructose] | 434 ×10^7 cfu/ml | 522 ×10^7 cfu/ml | 405 ×10^7 cfu/ml | 408 ×10^7 cfu/ml | 452 ×10^7 cfu/ml | 486 ×10^7 cfu/ml | 550 ×10^7 cfu/ml | 402 ×10^7 cfu/ml
OC[C@H]1O[C@@H](O[C@H]2[C@H](O)[C@@H](O)C(O)O[C@@H]2CO)[C@H](O)[C@@H](O)[C@H]1O (stereo partly drawn) [Lactose] | 460 ×10^7 cfu/ml | 420 ×10^7 cfu/ml | 456 ×10^7 cfu/ml | 405 ×10^7 cfu/ml | 550 ×10^7 cfu/ml | 405 ×10^7 cfu/ml | 520 ×10^7 cfu/ml | 450 ×10^7 cfu/ml
OC[C@H]1O[C@@](CO)(O[C@H]2O[C@H](CO)[C@@H](O)[C@H](O)[C@H]2O)[C@@H](O)[C@@H]1O [Refined sugar] | 325 ×10^7 cfu/ml | 472 ×10^7 cfu/ml | 464 ×10^7 cfu/ml | 482 ×10^7 cfu/ml | 427 ×10^7 cfu/ml | 425 ×10^7 cfu/ml | 580 ×10^7 cfu/ml | 504 ×10^7 cfu/ml
